Experimental findings from patent US12331040B2 (Karyopharm Therapeutics Inc., priority 2013, dated 2025) are described below.

Holding throughout (test): MTT cell proliferation assay
What all share (format): cell-based

The test system of one experiment is MS751 cells. The note with it: Homo sapiens, MS751, MS751 cells, approximately 64-72 hours incubation. The essentials:
(§1)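 5,000-10,000 cells/well, overnight attach; 8 conc., 1 nM–30 μM; MTT ~4 h; formazan solubilized, OD 490 nm; % inhibition = (1−(ODo/OD))×100 vs neg. control; mostly duplicate, mean±SE.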

In the next experiment the test system is Z138 cells. The note with it: Homo sapiens, Z-138, Z138 cells, approximately 64-72 hours incubation. In a few lines:
as §1

In a further experiment the test system is 3T3 cells. The note with it: Mus musculus, NIH3T3, approximately 64-72 hours incubation. In a few lines: as §1
[1] abbreviates: read-out: MTT Assay IC50 MS-751.
[2] abbreviates: read-out: MTT Assay IC50, MS-751.
Setting [3] is: read-out: MTT Assay IC50, Z-138.

Read-outs that look alike come from different tables or passages of the source. Some results are limits rather than exact numbers.

As a reminder, the IC50 is the concentration at which inhibition is half-maximal.

For `CN1Cc2cc(-c3cc(Cl)c4oc(CNC(=O)/C=C/c5ccc(N)nc5)cc4c3)ccc2C1=O` [Compound 513, (E)-3-(6-aminopyridin-3-yl)-N-((7-chloro-5-(2-methyl-1-oxoisoindolin-5-yl)benzofuran-2-yl)methyl)acrylamide], the IC50 in the experiment with MS751 cells (setting [1]) was greater than 10000 nM; in the experiment on Z138 cells (read-out: MTT Assay IC50 Z-138), 100 to 5000 nM; in the experiment with 3T3 cells (read-out: MTT Assay IC50 3T3), greater than 10 µM.
Take `O=C(/C=C/c1cscn1)NCc1cc2cc(-c3ccc(C(=O)N4CCOCC4)cc3)cc(Cl)c2o1` [Compound 542]: the IC50 is 100 to 5000 nM in the experiment on MS751 cells (setting [1]), 100 to 5000 nM with Z138 cells (read-out: MTT Assay IC50 Z-138) and greater than 10 µM in the experiment with 3T3 cells (read-out: MTT Assay IC50 3T3).
With `Nc1ccc(/C=C/C(=O)NCc2cc3cc(-c4ccc(C(=O)N5CC6CC6C5)cn4)cc(C(F)(F)F)c3o2)cn1` (stereo not drawn) [Compound 623, (E)-N-((5-(5-(3-azabicyclo[3.1.0]hexane-3-carbonyl)pyridin-2-yl)-7-(trifluoromethyl)benzofuran-2-yl)methyl)-3-(6-aminopyridin-3-yl)acrylamide], the IC50 in the experiment with MS751 cells (setting [1]) is 100 to 5000 nM; in the experiment on Z138 cells (read-out: MTT Assay IC50 Z-138), 100 to 5000 nM; in the experiment with 3T3 cells (read-out: MTT Assay IC50 3T3), greater than 10 µM.
With `Nc1ccc(/C=C/C(=O)NCc2cc3cc(-c4cncc(C(=O)N5CCOCC5)c4)cc(Cl)c3o2)cn1` [Compound 534, (E)-3-(6-aminopyridin-3-yl)-N-((7-chloro-5-(5-(morpholine-4-carbonyl)pyridin-3-yl)benzofuran-2-yl)methyl)acrylamide], the IC50 in the experiment on MS751 cells (setting [1]) is 100 to 5000 nM; in the experiment with Z138 cells (read-out: MTT Assay IC50 Z-138), 100 to 5000 nM; with 3T3 cells (read-out: MTT Assay IC50 3T3), greater than 10 µM.
On to `Nc1ccc(/C=C/C(=O)NCc2cc3cc(C(F)(F)F)cc(-c4ccc(C(=O)N5CCC(F)(F)CC5)cc4)c3o2)cn1` [Compound 702, (E)-3-(6-aminopyridin-3-yl)-N-((7-(4-(4,4-difluoropiperidine-1-carbonyl)phenyl)-5-(trifluoromethyl)benzofuran-2-yl)methyl)acrylamide], for which the IC50 was 5000 to 10000 nM in the experiment with MS751 cells (setting [2]); 100 to 5000 nM in the experiment on Z138 cells (setting [3]); greater than 10 µM in the experiment on 3T3 cells (read-out: MTT Assay IC50, 3T3).
`Nc1ccc(/C=C/C(=O)NCc2cc3cc(-c4ccc(C(=O)N5CCCNCC5)cc4)cc(C(F)(F)F)c3o2)cn1` [Compound 573, (E)-N-((5-(4-(1,4-diazepane-1-carbonyl)phenyl)-7-(trifluoromethyl)benzofuran-2-yl)methyl)-3-(6-aminopyridin-3-yl)acrylamide]: the IC50 with MS751 cells (setting [1]) is less than 100 nM; with Z138 cells (read-out: MTT Assay IC50 Z-138) it was less than 100 nM; with 3T3 cells (read-out: MTT Assay IC50 3T3), greater than 10 µM.
Regarding `Nc1ccc(/C=C/C(=O)NCc2cc3cc(-c4ccc(OC5CCC(F)(F)CC5)cc4)cc(-c4ccc(F)cc4)c3o2)cn1` [Compound 763, (E)-3-(6-aminopyridin-3-yl)-N-((5-(4-((4,4-difluorocyclohexyl)oxy)phenyl)-7-(4-fluorophenyl)benzofuran-2-yl)methyl)acrylamide], the IC50 in the experiment on MS751 cells (setting [2]) was 100 to 5000 nM; in the experiment on Z138 cells (setting [3]) it was 100 to 5000 nM; in the experiment on 3T3 cells (read-out: MTT Assay IC50, 3T3), greater than 10 µM.
As for `Nc1ccc(/C=C/C(=O)NCc2cc3cc(-c4ccc(C(=O)N5CCC(F)(F)CC5)cc4)cc(-c4ccncc4F)c3o2)cn1` [Compound 696, (E)-3-(6-aminopyridin-3-yl)-N-((5-(4-(4,4-difluoropiperidine-1-carbonyl)phenyl)-7-(3-fluoropyridin-4-yl)benzofuran-2-yl)methyl)acrylamide], the IC50 was less than 100 nM in the experiment on MS751 cells (setting [2]); less than 100 nM in the experiment on Z138 cells (setting [3]); 0.1 to 5 µM in the experiment with 3T3 cells (read-out: MTT Assay IC50, 3T3).
For the compound `O=C(/C=C/c1cccnc1)NCc1cc2cc(-c3ccc(C(=O)N4CCC(F)(F)CC4)cc3)cc(C(F)(F)F)c2o1` [Compound 682, (E)-N-((5-(4-(4,4-difluoropiperidine-1-carbonyl)phenyl)-7-(trifluoromethyl)benzofuran-2-yl)methyl)-3-(pyridin-3-yl)acrylamide], the IC50 was 100 to 5000 nM in the experiment on MS751 cells (setting [2]); 100 to 5000 nM in the experiment on Z138 cells (setting [3]); 0.1 to 5 µM in the experiment with 3T3 cells (read-out: MTT Assay IC50, 3T3).
For the compound `Nc1ccc(/C=C/C(=O)NCc2cc3ccc(-c4ccc(C(=O)N5CCC(F)(F)CC5)cn4)cc3o2)cn1` [Compound 718, (E)-3-(6-Aminopyridin-3-yl)-N-((6-(5-(4,4-difluoropiperidine-1-carbonyl)pyridin-2-yl)benzofuran-2-yl)methyl)acrylamide], the half-inhibitory concentration (IC50) in the experiment with MS751 cells (setting [2]) is 100 to 5000 nM; in the experiment with Z138 cells (setting [3]) it was 100 to 5000 nM; in the experiment on 3T3 cells (read-out: MTT Assay IC50, 3T3) it was greater than 10 µM.
On to `Nc1ccc(/C=C/C(=O)NCc2cc3cc(-c4ncc(C(=O)N5CCC(F)(F)C5)cn4)cc(C(F)(F)F)c3o2)cn1` [Compound 653, (E)-3-(6-aminopyridin-3-yl)-N-((5-(5-(3,3-difluoropyrrolidine-1-carbonyl)pyrimidin-2-yl)-7-(trifluoromethyl)benzofuran-2-yl)methyl)acrylamide], for which the IC50 in the experiment with MS751 cells (setting [1]) is 100 to 5000 nM; in the experiment with Z138 cells (read-out: MTT Assay IC50 Z-138) it was 100 to 5000 nM; with 3T3 cells (read-out: MTT Assay IC50 3T3), greater than 10 µM.
For the compound `CC(c1ccc(-c2cc(-c3ccc(F)cc3)c3oc(CNC(=O)/C=C/c4ccc(N)nc4)cc3c2)cc1)N1CCC(F)(F)CC1` (stereo not drawn) [Compound 760, (E)-3-(6-aminopyridin-3-yl)-N-((5-(4-(1-(4,4-difluoropiperidin-1-yl)ethyl)phenyl)-7-(4-fluorophenyl)benzofuran-2-yl)methyl)acrylamide], the IC50 with MS751 cells (setting [2]) is 100 to 5000 nM; in the experiment on Z138 cells (setting [3]) it was 100 to 5000 nM; in the experiment on 3T3 cells (read-out: MTT Assay IC50, 3T3) it was greater than 10 µM.
Take `Nc1ccc(/C=C/C(=O)NCc2cc3cc(-c4ccc(C(=O)N5CCCCC5)cc4)cc(Cl)c3o2)cn1` [Compound 600, (E)-3-(6-aminopyridin-3-yl)-N-((7-chloro-5-(4-(piperidine-1-carbonyl)phenyl)benzofuran-2-yl)methyl)acrylamide]: the IC50 with MS751 cells (setting [1]) is 5000 to 10000 nM; in the experiment on Z138 cells (read-out: MTT Assay IC50 Z-138), 100 to 5000 nM; in the experiment with 3T3 cells (read-out: MTT Assay IC50 3T3), greater than 10 µM.
On to `Nc1ccc(/C=C/C(=O)NCc2cc3cc(-c4ccc(C(=O)N5CCC(F)(F)CC5)cc4)cc(-c4ccc(F)cc4Cl)c3o2)cn1` [Compound 738, (E)-3-(6-aminopyridin-3-yl)-N-((7-(2-chloro-4-fluorophenyl)-5-(4-(4,4-difluoropiperidine-1-carbonyl)phenyl)benzofuran-2-yl)methyl)acrylamide], for which the IC50 was less than 100 nM in the experiment with MS751 cells (setting [2]); less than 100 nM with Z138 cells (setting [3]); 0.1 to 5 µM in the experiment with 3T3 cells (read-out: MTT Assay IC50, 3T3).
Take `Nc1ccc(/C=C/C(=O)NCc2cc3cc(-c4ccc(F)c(C(=O)N5CCOCC5)c4)cc(C(F)(F)F)c3o2)cn1` [Compound 563, (E)-3-(6-aminopyridin-3-yl)-N-((5-(4-fluoro-3-(morpholine-4-carbonyl)phenyl)-7-(trifluoromethyl)benzofuran-2-yl)methyl)acrylamide]: the IC50 with MS751 cells (setting [1]) is 100 to 5000 nM; in the experiment with Z138 cells (read-out: MTT Assay IC50 Z-138), less than 100 nM; with 3T3 cells (read-out: MTT Assay IC50 3T3), greater than 10 µM.
Consider `Nc1ccc(/C=C/C(=O)NCc2cc3cc(-c4ccc(C(=O)N5CCC(F)(F)CC5)cc4)cc(-c4cc(Cl)c(F)cc4F)c3o2)cn1` [Compound 698, (E)-3-(6-aminopyridin-3-yl)-N-((7-(5-chloro-2,4-difluorophenyl)-5-(4-(4,4-difluoropiperidine-1-carbonyl)phenyl)benzofuran-2-yl)methyl)acrylamide], for which the IC50 was less than 100 nM in the experiment with MS751 cells (setting [2]); less than 100 nM with Z138 cells (setting [3]); 0.1 to 5 µM with 3T3 cells (read-out: MTT Assay IC50, 3T3).
For the compound `CC1(F)CN(C(=O)c2ccc(-c3cc(C(F)(F)F)c4oc(CNC(=O)/C=C/c5ccc(N)nc5)cc4c3)cc2)C1` [Compound 587, (E)-3-(6-aminopyridin-3-yl)-N-((5-(4-(3-fluoro-3-methylazetidine-1-carbonyl)phenyl)-7-(trifluoromethyl)benzofuran-2-yl)methyl)acrylamide], the IC50 was 100 to 5000 nM with MS751 cells (setting [1]), 100 to 5000 nM with Z138 cells (read-out: MTT Assay IC50 Z-138) and greater than 10 µM in the experiment on 3T3 cells (read-out: MTT Assay IC50 3T3).
In the case of `Nc1ccc(/C=C/C(=O)NCc2cc3cc(-c4ncc(C(=O)N5CCNCC5)cn4)cc(C(F)(F)F)c3o2)cn1` [Compound 590, (E)-3-(6-aminopyridin-3-yl)-N-((5-(5-(piperazine-1-carbonyl)pyrimidin-2-yl)-7-(trifluoromethyl)benzofuran-2-yl)methyl)acrylamide], the IC50 in the experiment on MS751 cells (setting [1]) was 100 to 5000 nM; in the experiment with Z138 cells (read-out: MTT Assay IC50 Z-138) it was 100 to 5000 nM; in the experiment on 3T3 cells (read-out: MTT Assay IC50 3T3), greater than 10 µM.
`O=C(/C=C/c1cccnc1)NCc1cc2cc(-c3ccc(C(=O)N4CCC(F)(F)CC4)cc3)cc(-c3cccnc3)c2o1` [Compound 725, (E)-N-((5-(4-(4,4-difluoropiperidine-1-carbonyl)phenyl)-7-(pyridin-3-yl)benzofuran-2-yl)methyl)-3-(pyridin-3-yl)acrylamide]: the IC50 in the experiment with MS751 cells (setting [2]) is less than 100 nM; with Z138 cells (setting [3]) it was less than 100 nM; with 3T3 cells (read-out: MTT Assay IC50, 3T3), less than 0.1 µM.
For `Nc1ccc(/C=C/C(=O)NCc2cc3cc(-c4ccc(C(=O)N5CCC[C@@H]5C(F)(F)F)cn4)cc(C(F)(F)F)c3o2)cn1` [Compound 624, (R,E)-3-(6-aminopyridin-3-yl)-N-((7-(trifluoromethyl)-5-(5-(2-(trifluoromethyl)pyrrolidine-1-carbonyl)pyridin-2-yl)benzofuran-2-yl)methyl)acrylamide], the values for the half-inhibitory concentration (IC50) in the experiment on MS751 cells (setting [1]), in the experiment on Z138 cells (read-out: MTT Assay IC50 Z-138) and in the experiment with 3T3 cells (read-out: MTT Assay IC50 3T3) were 100 to 5000 nM, 100 to 5000 nM and greater than 10 µM, respectively.
`Nc1ccc(/C=C/C(=O)NCc2cc3cc(-c4ccc(C(=O)N5CCC(F)(F)C5)cc4)cc(C(F)(F)F)c3o2)cn1` [Compound 603, (E)-3-(6-aminopyridin-3-yl)-N-((5-(4-(3,3-difluoropyrrolidine-1-carbonyl)phenyl)-7-(trifluoromethyl)benzofuran-2-yl)methyl)acrylamide]: the IC50 in the experiment on MS751 cells (setting [1]) is 100 to 5000 nM; in the experiment on Z138 cells (read-out: MTT Assay IC50 Z-138), 100 to 5000 nM; in the experiment on 3T3 cells (read-out: MTT Assay IC50 3T3), greater than 10 µM.
